# Patent US20250186401A1, “COMBINATORIAL ACTIVATION OF GABA(B) AND A2 ADRENERGIC RECEPTORS PROVIDES RELIEF FROM STRESS INDUCED DEPRESSION” (University of Florida Research Foundation, Incorporated, priority 2022, published 2025)
# System: mice subjected to UCMS
# Experiment: TST in unpredictable chronic mild stress (UCMS) model
# Type: in vivo
# Conditions: UCMS mice (4 weeks); injection day 29, TST 30 min after; vs vehicle; FIG. 3B
# Description: TST was performed 30 min after injection time. To perform the TST, the tails of the mice were wrapped with tape that covered approximately 4/5 of the tail length and then fixed upside down on a hook. The immobility time of each mouse was recorded and tracked over a 6 min period. The Porsolt FST was conducted using vertical clear glass cylinder (10 cm in diameter, 25 cm in height) filled with water (25° C.). The mice spent 6 min in the water and immobility was scored from 2 to 6 min. A mouse was regarded as immobile when floating motionless or making only those movements necessary to keep its head above the water.
# This study investigated the effects of ClonBac in a mouse model of unpredictable chronic mild stress (0). For the UCMS paradigm, mice were housed in individual cages and were subjected to 4 weeks of stressors, with two stressors applied within a 24 hr period. Stressors were applied pseudo-randomly and included: intermittent bell (10 db, 1/10 s), continuous white noise for 4 h, rat odor, 45° cage tilt for 4 h, 30 minute cage shaking, soiled bedding for 8 hr, paired housing with a new partner for 2 h, overnight illumination, removal of nesting material for 12 hr, placement of a novel object in home cage for 3 h, and physical restraint for 1 h. Stressors continued to be applied during the behavioral testing phase. […]
compound,measurement,value
"NCC(CC(=O)O)c1ccc(Cl)cc1 (stereo not drawn) [baclofen, β-(4-chlorophenyl)-γ-aminobutyric acid]",TST immobility time,significantly attenuated immobility TST time
